System: 633275-114-R-J1-PDC complex spheroids, viability
Experiment: Anticancer human tumor 633275-114-R-J1-PDC patient-derived endometrial adenocarcinoma cell line growth inhibition [GQUAD]
Details: for IC50: curve of first compound; for viability, T/C: stronger effect = lower value; active = viability on the fitted dose curve at most 10% of control; inactive = the rest
How it was run: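 Multi-cell-type spheroids of tumor cells with HUVEC and mesenchymal stem cells, treated with drug combinations. Concentrations descend in half-log steps from near clinical Cmax, or from 10 microM where Cmax is unknown; viability read-out.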

[1] = second compound 0.0316 µM, first compound 0.0316 µM
[2] = second compound 0.0316 µM, first compound 0.1 µM
[3] = second compound 0.0316 µM, first compound 0.316 µM
[4] = second compound 0.0316 µM, first compound 1 µM
[5] = second compound 0.0316 µM, first compound 3.16 µM
[6] = second compound 0.0316 µM, first compound 10 µM
[7] = second compound 0.1 µM, first compound 0.0316 µM
[8] = second compound 0.1 µM, first compound 0.1 µM
[9] = second compound 0.1 µM, first compound 0.316 µM
[10] = second compound 0.1 µM, first compound 1 µM
[11] = second compound 0.1 µM, first compound 3.16 µM
[12] = second compound 0.1 µM, first compound 10 µM
[13] = second compound 0.316 µM, first compound 0.0316 µM
[14] = second compound 0.316 µM, first compound 0.1 µM
[15] = second compound 0.316 µM, first compound 0.316 µM
[16] = second compound 0.316 µM, first compound 1 µM
[17] = second compound 0.316 µM, first compound 3.16 µM
[18] = second compound 0.316 µM, first compound 10 µM
[19] = second compound 1 µM, first compound 0.0316 µM
[20] = second compound 1 µM, first compound 0.1 µM
[21] = second compound 1 µM, first compound 0.316 µM
[22] = second compound 1 µM, first compound 1 µM
[23] = second compound 1 µM, first compound 3.16 µM
[24] = second compound 1 µM, first compound 10 µM
[25] = second compound 3.16 µM, first compound 0.0316 µM
[26] = second compound 3.16 µM, first compound 0.1 µM
[27] = second compound 3.16 µM, first compound 0.316 µM
[28] = second compound 3.16 µM, first compound 1 µM
[29] = second compound 3.16 µM, first compound 3.16 µM
[30] = second compound 3.16 µM, first compound 10 µM
[31] = second compound 10 µM, first compound 0.0316 µM
[32] = second compound 10 µM, first compound 0.1 µM
[33] = second compound 10 µM, first compound 0.316 µM
[34] = second compound 10 µM, first compound 1 µM
[35] = second compound 10 µM, first compound 3.16 µM
[36] = second compound 10 µM, first compound 10 µM
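Also: spheroids exposed to the agents for seven days.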
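For viability, T/C in this document: percent of DMSO vehicle control viability which is 100%.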

CC(C)n1c(=O)n(C)c2cnc3cc(F)c(-c4ccc(OCCCN5CCCCC5)nc4)cc3c21 + Cc1[nH]c2ccc(F)cc2c1-c1nc2c3cccnc3c3ncccc3c2[nH]1
> 10 µM: IC50 (second compound 0.0316 µM) | IC50 (second compound 0.1 µM) | IC50 (second compound 0.316 µM) | IC50 (second compound 1 µM) | IC50 (second compound 3.16 µM) | IC50 (second compound 10 µM)
inactive: viability, T/C [1] 109% | viability, T/C [2] 105% | viability, T/C [3] 109% | viability, T/C [4] 100% | viability, T/C [5] 95.3% | viability, T/C [6] 68.3% | viability, T/C [7] 109% | viability, T/C [8] 105% | viability, T/C [9] 108% | viability, T/C [10] 101% | viability, T/C [11] 97.8% | viability, T/C [12] 70.5% | viability, T/C [13] 106% | viability, T/C [14] 105% | viability, T/C [15] 99.8% | viability, T/C [16] 99.2% | viability, T/C [17] 99.9% | viability, T/C [18] 71.2% | viability, T/C [19] 106% | viability, T/C [20] 98.2% | viability, T/C [21] 103% | viability, T/C [22] 90.9% | viability, T/C [23] 98.7% | viability, T/C [24] 70.7% | viability, T/C [25] 79.8% | viability, T/C [26] 76.3% | viability, T/C [27] 76.2% | viability, T/C [28] 72.2% | viability, T/C [29] 68.9% | viability, T/C [30] 55.1% | viability, T/C [31] 76.4% | viability, T/C [32] 74.4% | viability, T/C [33] 73.9% | viability, T/C [34] 74.1% | viability, T/C [35] 75% | viability, T/C [36] 55.4%

CC1COCCN1c1cc(-c2ccnn2C)c2ccnc(-c3ccn[nH]3)c2n1 (centres undefined) + Cc1[nH]c2ccc(F)cc2c1-c1nc2c3cccnc3c3ncccc3c2[nH]1
0.191 µM: IC50 (second compound 0.316 µM)
0.0748 µM: IC50 (second compound 10 µM)
0.146 µM: IC50 (second compound 0.0316 µM)
inactive: viability, T/C [1] 77.3% | viability, T/C [2] 56.4% | viability, T/C [3] 37.1% | viability, T/C [4] 27.7% | viability, T/C [5] 21.9% | viability, T/C [6] 16.8% | viability, T/C [7] 80.5% | viability, T/C [8] 57.5% | viability, T/C [9] 38.3% | viability, T/C [10] 26.3% | viability, T/C [11] 21.4% | viability, T/C [12] 17% | viability, T/C [13] 77.6% | viability, T/C [14] 62.9% | viability, T/C [15] 39% | viability, T/C [16] 28.1% | viability, T/C [17] 21.2% | viability, T/C [18] 18.4% | viability, T/C [19] 77.9% | viability, T/C [20] 52.5% | viability, T/C [21] 34.6% | viability, T/C [22] 26.6% | viability, T/C [23] 23% | viability, T/C [24] 17.7% | viability, T/C [25] 60.9% | viability, T/C [26] 46.1% | viability, T/C [27] 31.1% | viability, T/C [28] 26.8% | viability, T/C [29] 21.7% | viability, T/C [30] 17.5% | viability, T/C [31] 61% | viability, T/C [32] 46.9% | viability, T/C [33] 30.8% | viability, T/C [34] 25.1% | viability, T/C [35] 21.1% | viability, T/C [36] 18.6%
0.0704 µM: IC50 (second compound 3.16 µM)
0.156 µM: IC50 (second compound 0.1 µM)
0.116 µM: IC50 (second compound 1 µM)
